Measurements: patent publication US10501461B2, “Tyrosine amide derivatives as Rho-kinase inhibitors” (CHIESI FARMACEUTICI S.P.A., priority 2017, dated 2019)

What was measured:
Rho kinase 1 (ROCK-I) = Rho kinase 1 (ROCK-I) (Homo sapiens, UniProt Q13464); experiment: In vitro Rho kinase inhibitory activity assay (ADP-Glo), Rho kinase 1; type: biochemical; details: 10 μM ATP, 25° C., expressed as range of activity
Method in brief: (§1)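 ADP-Glo luminescence read-out. Enzyme (ROCK1 or ROCK2) + compound 30 min, then 10 μM ATP final, 1 h, 25 °C; 2.5 μM MBP peptide substrate, Tris pH7.5/MgCl2/BSA/DTT buffer, 1% DMSO. IC50 from variable-slope fit (0–100% fixed); Ki via Cheng-Prusoff.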

Rho kinase 2 (ROCK-II) = Rho kinase 2 (ROCK-II) (Homo sapiens, UniProt O75116); experiment: In vitro Rho kinase inhibitory activity assay (ADP-Glo), Rho kinase 2; type: biochemical; details: 10 μM ATP, 25° C., expressed as range of activity
Method in brief: as §1

Rho kinase 1 (ROCK-I), sequence (Q13464 whole entry): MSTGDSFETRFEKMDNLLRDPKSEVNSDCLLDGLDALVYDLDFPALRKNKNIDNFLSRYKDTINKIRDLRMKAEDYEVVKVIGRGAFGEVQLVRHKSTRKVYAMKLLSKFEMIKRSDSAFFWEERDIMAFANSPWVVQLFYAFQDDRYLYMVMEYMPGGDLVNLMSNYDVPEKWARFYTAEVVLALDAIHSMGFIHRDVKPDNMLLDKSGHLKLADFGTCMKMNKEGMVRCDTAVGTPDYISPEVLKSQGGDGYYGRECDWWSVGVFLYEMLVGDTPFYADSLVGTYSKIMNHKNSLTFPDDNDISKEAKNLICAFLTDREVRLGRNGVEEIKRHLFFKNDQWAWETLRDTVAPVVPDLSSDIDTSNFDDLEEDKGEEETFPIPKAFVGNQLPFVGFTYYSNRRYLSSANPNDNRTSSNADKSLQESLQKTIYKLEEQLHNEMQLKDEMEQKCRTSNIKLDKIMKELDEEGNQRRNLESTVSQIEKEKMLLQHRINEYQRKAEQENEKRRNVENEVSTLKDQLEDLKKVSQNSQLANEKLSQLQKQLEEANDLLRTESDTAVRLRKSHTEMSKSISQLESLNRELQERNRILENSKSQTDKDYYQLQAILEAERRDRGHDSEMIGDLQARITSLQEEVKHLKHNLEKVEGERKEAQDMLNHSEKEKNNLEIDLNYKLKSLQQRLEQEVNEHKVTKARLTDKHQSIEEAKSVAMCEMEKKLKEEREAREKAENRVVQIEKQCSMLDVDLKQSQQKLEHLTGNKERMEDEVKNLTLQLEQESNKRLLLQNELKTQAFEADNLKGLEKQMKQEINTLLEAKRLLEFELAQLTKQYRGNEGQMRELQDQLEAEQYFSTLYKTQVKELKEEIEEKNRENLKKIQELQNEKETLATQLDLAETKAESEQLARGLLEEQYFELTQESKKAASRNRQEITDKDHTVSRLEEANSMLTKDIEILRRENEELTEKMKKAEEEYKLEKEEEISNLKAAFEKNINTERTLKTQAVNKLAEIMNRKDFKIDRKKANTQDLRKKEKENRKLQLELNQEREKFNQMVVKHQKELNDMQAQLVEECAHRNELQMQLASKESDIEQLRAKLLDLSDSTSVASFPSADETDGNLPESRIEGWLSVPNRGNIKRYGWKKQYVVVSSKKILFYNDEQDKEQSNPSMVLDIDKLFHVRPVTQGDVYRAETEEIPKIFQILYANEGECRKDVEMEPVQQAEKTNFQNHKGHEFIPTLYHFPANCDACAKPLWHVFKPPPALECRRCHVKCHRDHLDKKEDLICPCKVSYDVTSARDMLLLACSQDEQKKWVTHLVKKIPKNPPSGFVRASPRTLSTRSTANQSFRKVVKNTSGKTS
Rho kinase 2 (ROCK-II), sequence (O75116 whole entry): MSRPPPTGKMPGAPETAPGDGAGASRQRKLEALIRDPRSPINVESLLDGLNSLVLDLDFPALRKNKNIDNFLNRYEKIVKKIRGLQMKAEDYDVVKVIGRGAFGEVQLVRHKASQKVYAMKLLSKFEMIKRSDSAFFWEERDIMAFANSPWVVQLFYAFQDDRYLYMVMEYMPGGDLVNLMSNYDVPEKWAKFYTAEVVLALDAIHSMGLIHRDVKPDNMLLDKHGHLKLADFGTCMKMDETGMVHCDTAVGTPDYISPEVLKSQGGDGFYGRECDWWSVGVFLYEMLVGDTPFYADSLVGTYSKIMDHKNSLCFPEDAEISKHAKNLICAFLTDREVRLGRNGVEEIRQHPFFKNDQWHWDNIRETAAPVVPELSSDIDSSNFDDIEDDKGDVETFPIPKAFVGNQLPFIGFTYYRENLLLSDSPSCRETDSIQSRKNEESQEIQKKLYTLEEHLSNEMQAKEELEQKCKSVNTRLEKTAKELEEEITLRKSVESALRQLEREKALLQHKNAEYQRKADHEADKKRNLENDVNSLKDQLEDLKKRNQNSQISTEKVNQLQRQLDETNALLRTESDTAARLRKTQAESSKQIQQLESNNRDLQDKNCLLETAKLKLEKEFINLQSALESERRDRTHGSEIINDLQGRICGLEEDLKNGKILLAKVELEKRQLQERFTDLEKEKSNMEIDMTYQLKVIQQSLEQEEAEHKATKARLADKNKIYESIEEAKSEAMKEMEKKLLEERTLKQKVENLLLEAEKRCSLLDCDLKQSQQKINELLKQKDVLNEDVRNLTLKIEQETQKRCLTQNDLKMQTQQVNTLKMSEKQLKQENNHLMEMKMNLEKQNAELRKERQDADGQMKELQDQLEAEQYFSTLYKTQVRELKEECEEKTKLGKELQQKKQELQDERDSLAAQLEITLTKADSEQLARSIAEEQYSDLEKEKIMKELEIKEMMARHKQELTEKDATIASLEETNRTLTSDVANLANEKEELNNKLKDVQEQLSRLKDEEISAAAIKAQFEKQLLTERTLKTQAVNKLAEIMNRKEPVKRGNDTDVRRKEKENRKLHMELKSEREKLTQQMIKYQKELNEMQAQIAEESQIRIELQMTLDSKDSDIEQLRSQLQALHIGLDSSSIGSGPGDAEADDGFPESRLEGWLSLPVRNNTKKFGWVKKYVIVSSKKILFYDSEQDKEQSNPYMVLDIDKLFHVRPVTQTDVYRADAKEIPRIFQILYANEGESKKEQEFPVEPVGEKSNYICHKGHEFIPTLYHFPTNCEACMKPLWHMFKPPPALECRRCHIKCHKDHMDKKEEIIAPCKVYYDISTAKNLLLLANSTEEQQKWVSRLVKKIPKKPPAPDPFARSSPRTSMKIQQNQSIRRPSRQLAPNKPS

Ki (Rho kinase 1 (ROCK-I)) | Ki (Rho kinase 2 (ROCK-II)) | Structure (SMILES)
< 3 nM | < 3 nM | Cc1c[nH]c2nccc(Oc3ccc(C[C@H](N)C(=O)NC4(CN(C)C)CCCCC4)cc3F)c12 [Example 38, (S)-2-amino-N-(1-((dimethylamino)methyl)cyclohexyl)-3-(3-fluoro-4-((3-methyl-1H-pyrrolo[2,3-b]pyridin-4-yl)oxy)phenyl)propanamide]
< 3 nM | < 3 nM | Cc1c[nH]c2nccc(Oc3ccc(CC(N)C(=O)N4Cc5ccncc5C4)cc3F)c12 (stereo not shown) [Example 65, 2-amino-3-(3-fluoro-4-((3-methyl-1H-pyrrolo[2,3-b]pyridin-4-yl)oxy)phenyl)-1-(1H-pyrrolo[3,4-c]pyridin-2(3H)-yl)propan-1-one]
< 3 nM | < 3 nM | Cc1c[nH]c2nccc(Oc3ccc(C[C@H](N)C(=O)NC4CCN(C)CC4)cc3F)c12 [Example 1, (S)-2-amino-3-(3-fluoro-4-((3-methyl-1H-pyrrolo[2,3-b]pyridin-4-yl)oxy)phenyl)-N-(1-methylpiperidin-4-yl)propanamide]
> 30 nM | > 30 nM | CN1CCC(NC(=O)[C@H](N)Cc2ccc(Oc3ccnc4[nH]ccc34)cc2)CC1 [Example 104, (R)-3-(4-((1H-pyrrolo[2,3-b]pyridin-4-yl)oxy)phenyl)-2-amino-N-(1-methylpiperidin-4-yl)propanamide]
< 3 nM | < 3 nM | Cc1c[nH]c2nccc(Oc3ccc(C[C@@H](N)C(=O)NC4CCCCC4)cc3F)c12 [Example 148, (R)-2-amino-N-cyclohexyl-3-(3-fluoro-4-((3-methyl-1H-pyrrolo[2,3-b]pyridin-4-yl)oxy)phenyl)propanamide]
< 3 nM | < 3 nM | Cc1c[nH]c2nccc(Oc3ccc(CC(N)C(=O)N4CCN(Cc5ccc(F)cc5)CC4)cc3F)c12 (stereo not shown) [Example 74, 2-amino-3-(3-fluoro-4-((3-methyl-1H-pyrrolo[2,3-b]pyridin-4-yl)oxy)phenyl)-1-(4-(4-fluorobenzyl)piperazin-1-yl)propan-1-one]
< 3 nM | < 3 nM | Cc1c[nH]c2nccc(Oc3ccc(C[C@H](N)C(=O)N4CCN(Cc5cncnc5)CC4)cc3F)c12 [Example 162, (S)-2-amino-3-(3-fluoro-4-((3-methyl-1H-pyrrolo[2,3-b]pyridin-4-yl)oxy)phenyl)-1-(4-(pyrimidin-5-ylmethyl)piperazin-1-yl)propan-1-one]
< 3 nM | < 3 nM | Cc1c[nH]c2nccc(Oc3ccc(C[C@H](N)C(=O)NCCc4cnn(-c5ccccc5)c4)cc3F)c12 [Example 56, (S)-2-amino-3-(3-fluoro-4-((3-methyl-1H-pyrrolo[2,3-b]pyridin-4-yl)oxy)phenyl)-N-(2-(1-phenyl-1H-pyrazol-4-yl)ethyl)propanamide]
< 3 nM | < 3 nM | Cc1c[nH]c2nccc(Oc3ccc(C[C@H](N)C(=O)NC4CN(C)C4)cc3F)c12 [Example 42, (S)-2-amino-3-(3-fluoro-4-((3-methyl-1H-pyrrolo[2,3-b]pyridin-4-yl)oxy)phenyl)-N-(1-methylazetidin-3-yl)propanamide]
< 3 nM | < 3 nM | CSc1nccc(CN2CCN(C(=O)[C@@H](N)Cc3ccc(Oc4ccnc5[nH]cc(C)c45)c(F)c3)CC2)n1 [Example 154, (S)-2-amino-3-(3-fluoro-4-((3-methyl-1H-pyrrolo[2,3-b]pyridin-4-yl)oxy)phenyl)-1-(4-((2-(methylthio)pyrimidin-4-yl)methyl)piperazin-1-yl)propan-1-one]
> 30 nM | 3 to 30 nM | CN(C)C(=O)C(N)Cc1ccc(Oc2ccnc3[nH]ccc23)cc1 (stereo not shown) [Example 113, 3-(4-((1H-pyrrolo[2,3-b]pyridin-4-yl)oxy)phenyl)-2-amino-N,N-dimethylpropanamide]
< 3 nM | < 3 nM | N[C@@H](Cc1ccc(Oc2ccnc3[nH]cc(C4=CCOC4)c23)cc1)C(=O)N1CCN(Cc2ccccc2)CC1 [Example 201, (S)-2-amino-1-(4-benzylpiperazin-1-yl)-3-(4-((3-(2,5-dihydrofuran-3-yl)-1H-pyrrolo[2,3-b]pyridin-4-yl)oxy)phenyl)propan-1-one]
< 3 nM | < 3 nM | N[C@@H](Cc1ccc(Oc2ccnc3[nH]cc(-c4cncs4)c23)cc1)C(=O)N1CCN(Cc2ccccc2)CC1 [Example 196, (S)-2-amino-1-(4-benzylpiperazin-1-yl)-3-(4-((3-(thiazol-5-yl)-1H-pyrrolo[2,3-b]pyridin-4-yl)oxy)phenyl)propan-1-one]
< 3 nM | < 3 nM | Cc1c[nH]c2nccc(Oc3ccc(CC(N)C(=O)N4CCN(Cc5ccccc5)CC4)cc3F)c12 (stereo not shown) [Example 132, 2-amino-1-(4-benzylpiperazin-1-yl)-3-(3-fluoro-4-((3-methyl-1H-pyrrolo[2,3-b]pyridin-4-yl)oxy)phenyl)propan-1-one]
3 to 30 nM | 3 to 30 nM | COCc1c[nH]c2nccc(Oc3ccc(C[C@H](N)C(=O)NC4CCOCC4)cc3F)c12 [Example 214, (S)-2-amino-3-(3-fluoro-4-((3-(methoxymethyl)-1H-pyrrolo[2,3-b]pyridin-4-yl)oxy)phenyl)-N-(tetrahydro-2H-pyran-4-yl)propanamide]
3 to 30 nM | 3 to 30 nM | N[C@@H](Cc1ccc(Oc2ccnc3[nH]cc(C4=CCNC4)c23)cc1)C(=O)N1CCN(Cc2ccccc2)CC1 [Example 202, (S)-2-amino-1-(4-benzylpiperazin-1-yl)-3-(4-((3-(2,5-dihydro-1H-pyrrol-3-yl)-1H-pyrrolo[2,3-b]pyridin-4-yl)oxy)phenyl)propan-1-one]
< 3 nM | < 3 nM | Cc1c[nH]c2nccc(Oc3ccc(C[C@H](N)C(=O)N4CC(N(C)C)C4)cc3F)c12 [Example 41, (S)-2-amino-1-(3-(dimethylamino)azetidin-1-yl)-3-(3-fluoro-4-((3-methyl-1H-pyrrolo[2,3-b]pyridin-4-yl)oxy)phenyl)propan-1-one]
< 3 nM | < 3 nM | Cc1c[nH]c2nccc(Oc3ccc(C[C@H](N)C(=O)Nc4ccccc4)cc3F)c12 [Example 145, (S)-2-amino-3-(3-fluoro-4-((3-methyl-1H-pyrrolo[2,3-b]pyridin-4-yl)oxy)phenyl)-N-phenylpropanamide]
< 3 nM | < 3 nM | COCCN1CCN(C(=O)C(N)Cc2ccc(Oc3ccnc4[nH]cc(C)c34)c(F)c2)CC1 (stereo not shown) [Example 19, 2-amino-3-(3-fluoro-4-((3-methyl-1H-pyrrolo[2,3-b]pyridin-4-yl)oxy)phenyl)-1-(4-(2-methoxyethyl)piperazin-1-yl)propan-1-one]
< 3 nM | < 3 nM | Cc1c[nH]c2nccc(Oc3ccc(C[C@H](N)C(=O)NC4CCCCC4)cc3)c12 [Example 141, (S)-2-amino-N-cyclohexyl-3-(4-((3-methyl-1H-pyrrolo[2,3-b]pyridin-4-yl)oxy)phenyl)propanamide]
< 3 nM | < 3 nM | N[C@@H](Cc1ccc(Oc2ccnc3[nH]cc(C#CCO)c23)cc1)C(=O)NC1CCCCC1 [Example 217, (S)-2-amino-N-cyclohexyl-3-(4-((3-(3-hydroxyprop-1-yn-1-yl)-1H-pyrrolo[2,3-b]pyridin-4-yl)oxy)phenyl)propanamide]
< 3 nM | < 3 nM | Cc1c[nH]c2nccc(Oc3ccc(CC(N)C(=O)N4CCN(C5CC5)CC4)cc3F)c12 (stereo not shown) [Example 60, 2-amino-1-(4-cyclopropylpiperazin-1-yl)-3-(3-fluoro-4-((3-methyl-1H-pyrrolo[2,3-b]pyridin-4-yl)oxy)phenyl)propan-1-one]
< 3 nM | < 3 nM | N[C@@H](Cc1ccc(Oc2ccnc3[nH]cc(Br)c23)cc1)C(=O)NC1CCCCC1 [Example 188, (S)-2-amino-3-(4-((3-bromo-1H-pyrrolo[2,3-b]pyridin-4-yl)oxy)phenyl)-N-cyclohexylpropanamide]
< 3 nM | < 3 nM | Cc1c[nH]c2nccc(Oc3ccc(C[C@H](N)C(=O)N4CCC(Cc5ccccc5)CC4)cc3F)c12 [Example 13, (S)-2-amino-1-(4-benzylpiperidin-1-yl)-3-(3-fluoro-4-((3-methyl-1H-pyrrolo[2,3-b]pyridin-4-yl)oxy)phenyl)propan-1-one]
< 3 nM | < 3 nM | Cc1c[nH]c2nccc(Oc3ccc(CC(N)C(=O)NC4CCN(Cc5ccccc5)CC4)cc3F)c12 (stereo not shown) [Example 83, 2-amino-N-(1-benzylpiperidin-4-yl)-3-(3-fluoro-4-((3-methyl-1H-pyrrolo[2,3-b]pyridin-4-yl)oxy)phenyl)propanamide]
< 3 nM | < 3 nM | Cc1c[nH]c2nccc(Oc3ccc(C[C@@H](N)C(=O)Nc4ccccc4)cc3F)c12 [Example 149, (R)-2-amino-3-(3-fluoro-4-((3-methyl-1H-pyrrolo[2,3-b]pyridin-4-yl)oxy)phenyl)-N-phenylpropanamide]
< 3 nM | < 3 nM | Cc1c[nH]c2nccc(Oc3ccc(C[C@H](N)C(=O)N4CCN(C(=O)N(C)C)CC4)cc3F)c12 [Example 23, (S)-4-(2-amino-3-(3-fluoro-4-((3-methyl-1H-pyrrolo[2,3-b]pyridin-4-yl)oxy)phenyl)propanoyl)-N,N-dimethylpiperazine-1-carboxamide]
> 30 nM | > 30 nM | CN(C(=O)[C@H](N)Cc1ccc(Oc2ccnc3[nH]ccc23)cc1)C1CCCCC1 [Example 102, (R)-3-(4-((1H-pyrrolo[2,3-b]pyridin-4-yl)oxy)phenyl)-2-amino-N-eyclohexyl-N-methylpropanamide]
> 30 nM | > 30 nM | CN(C)C(=O)C(Cc1ccc(Oc2ccnc3[nH]ccc23)cc1)NC(=O)C1CCNC1 (stereo not shown) [Example 178, N-(3-(4-((1H-pyrrolo[2,3-b]pyridin-4-yl)oxy)phenyl)-1-(dimethylamino)-1-oxopropan-2-yl)pyrrolidine-3-carboxamide]
